Residues, ends and D or L forms follow the SMILES beside them.
Key:
[1] = tested on: rats with alloxan diabetes; assay: Insulin effect on blood glucose level in alloxan diabetes rats after tetrapeptide course (Example 7); format: in vivo, rat
Protocol: The study was conducted on 13 male rats, enrolled in the previous trial (treatment variant—28 days after completion of Lys-Glu-Asp-Trp-NH2 [SEQ ID NO:1] tetrapeptide administration). 8 healthy rats of the similar body weight constituted a separate group. All the animals were administered intravenously with insulin (0.3 units) and glucose concentration in their blood was estimated hereafter.

[2] = tested on: rats with alloxan diabetes; assay: Insulin level in blood of alloxan diabetes rats (Example 5); format: in vivo, rat
Protocol: The experiment was held on 18 white mongrel rats weighing an average 375±35 g. After the estimation of the blood glucose level all the animals were divided at random into 2 groups. Then all the animals were subjected to single intravenous injection with 1 ml of alloxan solution (“Spofa”) in dose of 35 mg/kg. 15 days later control animals were daily intraperitoneally administered with 0.3 ml of 0.9% NaCl solution, rats of the main group—with tetrapeptide Lys-Glu-Asp-Trp-NH2 [SEQ ID NO:1] in dose of 3 μg (in 0.3 ml of 0.9% NaCl) per rat during 11 days.

[3] = tested on: rats with alloxan diabetes; assay: Course of alloxan diabetes in rats, treatment variant (Example 2); format: in vivo, rat; details: for decrease of the blood glucose level: throughout the whole study
Protocol: The study was conducted on 21 white mongrel male rats with average body weight 375±35 g. After estimation of glucose concentration in the blood all the animals were divided at random into 2 groups. Then all the animals were exposed to single intravenous administration 1 ml of alloxan solution (“Spofa”) in dose 35 mg/kg. In 15 days control animals were administered once a day intraperitoneally with 0.3 ml 0.9% NaCl solution, rats of the main group were administered with Lys-Glu-Asp-Trp-NH2 [SEQ ID NO:1] in dose 3 μg (in 0.3 ml of 0.9% NaCl solution) per rat during 11 days.

[4] = Toxicity (experimentally proved)
[5] = tested on: rats with alloxan diabetes; assay: Course of alloxan diabetes in rats, prophylaxis and treatment variant (Example 3); format: in vivo, rat
Protocol: The experiment was carried out on 15 white mongrel male rats with the average body weight 375±35 g. The animals were divided randomly into 2 groups. Control animals were administered once a day intravenously with 0.3 ml of 0.9% NaCl solution, while the main group animals were administered with Lys-Glu-Asp-Trp-NH2 [SEQ ID NO:1] tetrapeptide in dose of 3 μg (in 0.3 ml of 0.9% NaCl solution) per rat during 7 days. After that all the animals were subject to single intravenous administration of 1 ml of alloxan solution (“Spofa”) in dose 35 mg/kg. Lys-Glu-Asp-Trp-NH2 [SEQ ID NO:1] tetrapeptide had been administered during 3 days following alloxan administration. After that […] were subject to the second Lys-Glu-Asp-Trp-NH2 [SEQ ID NO:1] tetrapeptide course from 18 day till day 28 (total 11 days) in the same dose.

[6] = tested on: rats with alloxan diabetes; assay: Tetrapeptide in different doses on the course of alloxan diabetes in rats (Example 4); format: in vivo, rat; details: for increase in the blood glucose level as compared to the controls: dose of 1 μg; for decrease of glucose level: dose of 10 μg
Protocol: The study was performed on 23 white mongrel male rats weighing on average […]. All the animals were subject to single intravenous administration of 1 ml of alloxan (“Spofa”) solution in dose of […].
Then the animals were divided at random into 3 groups. Control animals were intraperitoneally administered with 0.3 ml of 0.9% NaCl solution once a day. Rats of the second and third group were administered with tetrapeptide Lys-Glu-Asp-Trp-NH2 [SEQ ID NO:1] in dose of 1 μg (in 0.1 ml of 0.9% NaCl solution) and 10 μg (in 1.0 ml of 0.9% NaCl solution) per rat during 7 days.

[7] = 8 days since the onset of tetrapeptide administration, 3 μg per rat i.p. daily
[8] = 15 days after alloxan administration, before peptide

NCCCC[C@H](N)C(=O)N[C@@H](CCC(=O)O)C(=O)N[C@@H](CC(=O)O)C(=O)N[C@@H](Cc1c[nH]c2ccccc12)C(N)=O [Lys-Glu-Asp-Trp-NH2, lysyl-glutamyl-aspartyl-tryptophane amid] (H-KEDW-NH2)
Decrease in glucose content with respect to initial level ([1]; 30 minutes after insulin administration): 44.2% | Glucose Concentration in blood ([1]; 30 minutes after insulin administration (0.3 units i.v.)): 123.6 ± 8.3 mg % | Glucose Concentration in blood ([1]; initial level, 28 days after course completion): 221.5 ± 11.2 mg % | decrease of the glucose level after insulin administration as compared to the control group ([1]; rat, in vivo): two-fold | animals alive ([2]; 70th day after alloxan administration (control 62.5%)): 70% | Insulin content in blood ([2]; 1 day after the completion of tetrapeptide administration): 3.6 ± 0.7 mkIU/ml | insulin content in the blood, higher than in the control group ([2]; 8 days of substance administration): 3.9 fold | Insulin content in blood [2, 7]: 3.1 ± 1.1 mkIU/ml | Insulin content in blood ([2]; 9 days after the completion of tetrapeptide administration): 3.2 ± 0.5 mkIU/ml | Insulin content in blood [2, 8]: 1.5 ± 0.4 mkIU/ml | Insulin content in blood ([2]; 18 days after the completion of tetrapeptide administration): 4.3 ± 0.5 mkIU/ml | Insulin content in blood ([2]; 28 days after the completion of tetrapeptide administration): 4.1 ± 0.6 mkIU/ml | Insulin content in blood ([2]; 44 days after the completion of tetrapeptide administration): 3.9 ± 1.1 mkIU/ml | amount of insulin in the blood ([2]; all the following estimations, no insulin in control animals): 13-18% | Insulin content in blood ([2]; initial level): 23.8 ± 2.8 mkIU/ml | Glucose Concentration in the blood ([3]; 1 day upon completion of peptide administration (3 μg per rat, 11 days)): 222.5 ± 10.3 mg % | Glucose Concentration in the blood [3, 7]: 254.5 ± 16.2 mg % | Glucose Concentration in the blood ([3]; 9 days upon completion of peptide administration): 183.9 ± 10.5 mg % | Glucose Concentration in the blood [3, 8]: 333.6 ± 12.4 mg % | Glucose Concentration in the blood ([3]; 18 days upon completion of peptide administration): 236.7 ± 10.3 mg % | Glucose Concentration in the blood ([3]; 28 days upon completion of peptide administration): 221.5 ± 11.2 mg % | Glucose Concentration in the blood ([3]; 44 days upon completion of peptide administration): 210.8 ± 9.3 mg % | Glucose Concentration in the blood ([3]; 58 days upon completion of peptide administration): 198.9 mg % | lethality ([3]; by the end of the investigation, 84 days after alloxan (control 70%)): 36.4% | Glucose Concentration in the blood ([3]; initial level, before alloxan and before peptide): 81.1 ± 3.8 mg % | decrease of the blood glucose level ([3]; overall figure): 38.4% | decrease of the blood glucose level ([3]; range in brackets): 30-47.7% | lethality decrease ([3]; versus control group): two-fold | toxicity [4]: non-toxic | survived animals ([5]; 40th day after alloxan administration (control 57.1%)): 75% | Glucose Concentration in blood ([5]; 5 days after alloxan administration): 247.3 ± 17.2 mg % | Glucose Concentration in blood ([5]; 7 days from the onset of tetrapeptide administration (1 course, 3 μg per rat), healthy rats before alloxan): 94.0 ± 0.8 mg % | Glucose Concentration in blood ([5]; 14 days after alloxan administration): 261.5 ± 39.5 mg % | Glucose Concentration in blood ([5]; 18 days after alloxan administration (start of 2nd course)): 159.0 ± 32.6 mg % | Glucose Concentration in blood ([5]; 28 days after alloxan administration (end of 2nd course)): 77.3 ± 1.3 mg % | Glucose Concentration in blood ([5]; 33 days after alloxan administration): 90.7 ± 5.2 mg % | Glucose Concentration in blood ([5]; 40 days after alloxan administration): 107.7 ± 6.4 mg % | effect on blood glucose level ([5]; administration to healthy animals): did not lead to the decrease of blood glucose level | decrease of blood glucose level as compared to the controls ([5]; after one course): 22-30% | blood glucose level ([5]; after the second course, 28th, 33rd, 40th day): complete normalisation of the blood glucose level | rats with severe form of diabetes mellitus ([5]; control: 5 rats out of 7): 2 rats out of 8 | Glucose Concentration in blood ([5]; initial level, before peptide): 76.8 ± 1.1 mg % | Glucose Concentration in blood ([6]; 1 mkg group, 7 days after alloxan administration): 245.6 ± 12.3 mg % | Glucose Concentration in blood ([6]; 1 mkg group, 14 days after alloxan administration): 261.7 ± 12.3 mg % | Glucose Concentration in blood ([6]; 1 mkg group, initial level): 80.6 ± 2.8 mg % | Glucose Concentration in blood ([6]; 1 mkg per rat, 7 days, 1 day after tetrapeptide administration): 228.3 ± 10.7 mg % | Glucose Concentration in blood ([6]; 1 mkg per rat, 4 days after tetrapeptide administration): 244.4 ± 12.2 mg % | Glucose Concentration in blood ([6]; 1 mkg per rat, 7 days after tetrapeptide administration): 269.4 ± 8.6 mg % | Glucose Concentration in blood ([6]; 1 mkg per rat, 14 days after tetrapeptide administration): 268.8 ± 12.4 mg % | Glucose Concentration in blood ([6]; 1 mkg per rat, 21 days after tetrapeptide administration): 272.5 ± 9.9 mg % | Glucose Concentration in blood ([6]; 10 mkg group, 7 days after alloxan administration): 247.2 ± 14.0 mg % | Glucose Concentration in blood ([6]; 10 mkg group, 14 days after alloxan administration): 252.2 ± 7.9 mg % | Glucose Concentration in blood ([6]; 10 mkg group, initial level): 83.9 ± 3.4 mg % | Glucose Concentration in blood ([6]; 10 mkg per rat, 7 days, 1 day after tetrapeptide administration): 193.3 ± 6.7 mg % | Glucose Concentration in blood ([6]; 10 mkg per rat, 4 days after tetrapeptide administration): 212.2 ± 7.3 mg % | Glucose Concentration in blood ([6]; 10 mkg per rat, 7 days after tetrapeptide administration): 205.6 ± 8.4 mg % | Glucose Concentration in blood ([6]; 10 mkg per rat, 14 days after tetrapeptide administration): 240.0 ± 7.9 mg % | Glucose Concentration in blood ([6]; 10 mkg per rat, 21 days after tetrapeptide administration): 248.3 ± 13.5 mg % | increase in the blood glucose level as compared to the controls ([6]; 1st day after completion of the course): 17.3% | increase in the blood glucose level as compared to the controls ([6]; 4th day after completion of the course): 12.3% | decrease of glucose level ([6]; day 1): 30% | decrease of glucose level ([6]; day 4): 23.8% | decrease of glucose level ([6]; day 7): 26% | decrease of glucose level ([6]; day 17): 12.7%
